Measured values taken from patent US11077206B2, “Composition for gene therapy or transfection, and preparation method and use thereof” (SHANGHAI CHANGZHENG HOSPITAL, priority 2017, dated 2021).

Tested on: Hela-luci cells
Test: cytotoxicity in Hela-luci cells by MTT method
Type: cell-based
Conditions: 24 hours, siRNA (and cationic polymer where named) at transfection concentration, EGCG dose well above the transfection dose
Method: (§1) A method for studying the cytotoxicity of the natural polyphenol EGCG in the present invention comprises steps of: incubating Hela-luci cells in a 96-well plate at a cell density of 10^4 cells/well, removing a medium after incubation for 12 hours, and adding 100 μl fresh medium containing the siRNA whose concentration is the same as transfection concentration and a certain amount of EGCG, where the concentration of EGCG is from low to high (comprising the transfection concentration), and a final concentration is much higher than the transfection concentration; culturing for 24 hours, and measuring cytotoxicity by a MTT method.
as §1, with “polyphenol EGCG and cationic polymer LPEI in the” for “polyphenol EGCG in the”, “the siRNA and LPEI whose concentration” for “the siRNA whose concentration”, “MTT method. […]” for “MTT method.”

## O=C(O[C@@H]1Cc2c(O)cc(O)cc2O[C@@H]1c1cc(O)c(O)c(O)c1)c1cc(O)c(O)c(O)c1 [EGCG]
  cell viability: more than 90%
